Data from the supplement of paper PMC4977894.
± gives the standard deviation of the averaged measurements.

Experiments:
[1] = tested on: Homo sapiens (human subject panel, olfactory perception); assay: perceived odor familiarity rating (rating 0-100); higher = more familiar
Experimental: (§1)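 Human olfactory psychophysics. 55 healthy subjects (after excluding 6 low performers) sniffed 1 mL of each odorant diluted in paraffin oil (vials, two dilutions per molecule, 20 molecules presented twice). Each subject rated intensity, pleasantness and familiarity on a 0-100 slider, starting at 50 and required to move. Ratings were given only when the subject reported detecting a smell; per-subject ratings are averaged over subjects.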

[2] = tested on: Homo sapiens (human subject panel, olfactory perception); assay: perceived odor pleasantness rating (rating 0-100); higher = more pleasant
Experimental: as §1

[3] = tested on: Homo sapiens (human subject panel, olfactory perception); assay: perceived odor intensity rating (rating 0-100); higher = stronger perceived smell
Experimental: as §1

[4] = odor dilution in paraffin oil: 1/100,000
[5] = odor dilution in paraffin oil: 1/10,000,000
[6] = odor dilution in paraffin oil: 1/10
[7] = odor dilution in paraffin oil: 1/1,000

Compound | perceived odor familiarity rating [1, 4] | perceived odor familiarity rating [1, 5] | perceived odor pleasantness rating [2, 4] | perceived odor pleasantness rating [2, 5] | perceived odor intensity rating [3, 4] | perceived odor intensity rating [3, 5] | perceived odor familiarity rating [1, 6] | perceived odor familiarity rating [1, 7] | perceived odor pleasantness rating [2, 6] | perceived odor pleasantness rating [2, 7] | perceived odor intensity rating [3, 6] | perceived odor intensity rating [3, 7]
CSCCCO [3-(methylthio)-1-propanol] | 53.7 ± 31 | 43.2 ± 31 | 22.9 ± 26 | 24.8 ± 22 | 82.2 ± 17 | 66.3 ± 26 | – | – | – | – | – | –
CCCCCC(C=O)=Cc1ccccc1 [alpha-Amylcinnamaldehyde] | – | – | – | – | – | – | 45.1 ± 31 | 36 ± 27 | 43.5 ± 27 | 33.2 ± 26 | 65.5 ± 29 | 54.4 ± 32
CC(C)CCO [isoamyl alcohol] | 25.9 ± 21 | – | 39.2 ± 25 | – | 23.4 ± 26 | – | – | 50.8 ± 33 | – | 51 ± 33 | – | 63.5 ± 32
CCC1OC(=O)C(O)=C1C (stereo not drawn) [5-Ethyl-3-hydroxy-4-methyl-2(5H)-furanone (replicate)] | 54.2 ± 32 | 64.6 ± 32 | 65.2 ± 22 | 67.5 ± 26 | 44.9 ± 30 | 58.9 ± 32 | – | – | – | – | – | –
CCCCC1OC(=O)CC1C (stereo not drawn) [Whiskey lactone] | 50.6 ± 33 | – | 60.2 ± 27 | – | 51.8 ± 29 | – | – | 62.2 ± 30 | – | 69.7 ± 22 | – | 71.3 ± 23
CCCSCCC [propyl sulfide] | 29.4 ± 28 | 34.7 ± 38 | 44.5 ± 28 | 40.7 ± 25 | 28.1 ± 31 | 11.6 ± 12 | – | – | – | – | – | –
CCCC(C)O (stereo not drawn) [2-pentanol] | 38.9 ± 31 | – | 42.6 ± 21 | – | 25.7 ± 23 | – | – | 41.8 ± 30 | – | 35.5 ± 26 | – | 50.2 ± 34
COc1ccc(C)cc1 [4-Methylanisole] | 50.2 ± 28 | – | 56.3 ± 28 | – | 44.8 ± 31 | – | – | 48.2 ± 31 | – | 47.7 ± 28 | – | 70.5 ± 21
CC(=O)CCc1ccc(O)cc1 [4-(4-Hydroxyphenyl)-2-butanone] | – | – | – | – | – | – | 40.1 ± 29 | 46.1 ± 28 | 49.6 ± 27 | 50.6 ± 24 | 50.2 ± 29 | 46.3 ± 30
NC(Cc1ccccc1)C(=O)O (racemic) [DL-Phenylalanine] | – | – | – | – | – | – | 43.4 ± 31 | 41.9 ± 29 | 38.2 ± 26 | 51.4 ± 27 | 70 ± 24 | 35.2 ± 29
c1ccccc1 [Benzene] | 27.4 ± 25 | – | 39.4 ± 22 | – | 19.8 ± 26 | – | – | 26.1 ± 24 | – | 51.7 ± 20 | – | 11.2 ± 14
C/C=C/c1ccc(OC)cc1 [trans-Anethole] | 40 ± 32 | – | 51.3 ± 23 | – | 30.8 ± 30 | – | – | 74 ± 26 | – | 62.1 ± 26 | – | 64.3 ± 28
CC(C)C=O [Isobutyraldehyde] | 39 ± 31 | – | 27.3 ± 19 | – | 61.6 ± 28 | – | – | 43.1 ± 29 | – | 24.3 ± 22 | – | 77.5 ± 24
CCOc1ccc(C=O)cc1 [4-Ethoxybenzaldehyde] | 47.2 ± 31 | – | 66.4 ± 24 | – | 34.2 ± 28 | – | – | 58.5 ± 30 | – | 67.4 ± 26 | – | 65.2 ± 25
Nc1ccccc1C(=O)OCCc1ccccc1 [Phenethyl anthranilate] | – | – | – | – | – | – | 50.1 ± 32 | 27.7 ± 23 | 56.9 ± 24 | 48.2 ± 19 | 39.9 ± 32 | 15.1 ± 20
CCCCCC/C=C/C(=O)OC [Methyl trans-2-nonenoate] | 37.1 ± 26 | – | 56.4 ± 17 | – | 20.3 ± 22 | – | – | 53.4 ± 27 | – | 50.3 ± 27 | – | 49.1 ± 27
c1ccc(CSSCc2ccccc2)cc1 [Benzyl disulfide] | – | – | – | – | – | – | 48.2 ± 34 | 49.1 ± 32 | 24.2 ± 25 | 26.8 ± 22 | 81.2 ± 20 | 63.6 ± 27
CC(=O)OC1CC2CCC1(C)C2(C)C (stereo not drawn) [Bornyl acetate] | 28.9 ± 26 | – | 45.7 ± 24 | – | 29.9 ± 28 | – | – | 44.2 ± 29 | – | 45.2 ± 22 | – | 36.1 ± 30
